Data published in PubChem BioAssay (NCI).
Where “and” joins values, the source holds several entries; their conditions need not be identical. Equal entries are not always repeated.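 48-hour exposure; five concentrations; linearly interpolated endpoints. GI50 = concentration required for 50% inhibition of growth. Definition used: TGI = concentration required for complete inhibition of growth.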

How the values were obtained:
Test in all cases: NCI anticancer screen, dose series, 48 h
[1] = system: A549 NSCLC
[2] = system: HCT-116 colon
[3] = system: UACC-257 melanoma
[4] = system: M14 melanoma
[5] = system: OVCAR-3 ovarian
[6] = system: SK-MEL-2 melanoma
[7] = system: NCI-H226 lung
[8] = system: RXF 393 renal
[9] = system: LOX IMVI melanoma
[10] = system: MOLT-4 leukemia

Compound | TGI [1] | TGI [2] | TGI [3] | TGI [4] | TGI [5] | TGI [6] | TGI [7] | TGI [8] | TGI [9] | TGI [10] | GI50 [1] | GI50 [2] | GI50 [3] | GI50 [4] | GI50 [5] | GI50 [6] | GI50 [7] | GI50 [9] [µM] | GI50 [10] [µM]
O=C1CC(c2cccc(Br)c2)n2cccc21 (stereo unspecified) | > 100 µM | > 100 µM | > 100 µM | > 100 µM | > 100 µM | 95.3 µM | > 100 µM | > 100 µM | > 100 µM | > 100 µM |  |  |  |  |  |  |  |  | 
CCOC(=O)c1sc2[n+](c1C)C(=O)/C(=C/c1ccc([N+](=O)[O-])cc1)S2 | > 100 µM | 54.7 µM | 98 µM | > 100 µM | 24.1 µM | 51.2 µM | 58.4 µM | 81.5 µM | 61.1 µM | 53.5 µM |  |  |  |  |  |  |  |  | 
CC1OC(OC2C(OC(=O)[C@]34CCC(C)(C)C[C@H]3C3=CC[C@@H]5[C@@]6(C)CC[C@H](OC7OC(C(=O)O)C(O)C(OC8OCC(O)C(O)C8O)C7O)C(C)(C)[C@@H]6CC[C@@]5(C)[C@]3(C)CC4)OCC(O)C2O)C(O)C(OC2OCC(O)C(O)C2O)C1OC1OCC(O)C(OC2OCC(O)C(O)C2O)C1O (stereo partly specified) | 16.9 µM and 28.4 µM | 62.5 µM and > 100 µM | 20.2 µM and 32.5 µM | 17 µM and 34 µM | 50.4 µM and > 100 µM | 14.5 µM and 34.2 µM | 24.6 µM and 39.7 µM | 37.5 µM and 42.9 µM | 26.3 µM and 35.5 µM | 25 µM and 49.8 µM | 5.06 µM and 14.3 µM | 8.78 µM and 22.9 µM | 7.06 µM and 16.6 µM | 5.97 µM and 19.2 µM | 13 µM and 35 µM | 6.31 µM and 17.3 µM | 9.29 µM and 19.1 µM |  | 
C=C1C(=O)O[C@@H]2C[C@]3(C)CC[C@]4(C)[C@H](CC[C@@H]5[C@@]6(C)CCC(=O)C(C)(C)[C@@H]6CC[C@]54C)[C@H]3[C@H]12 | 46.9 µM | 31.3 µM | 32.8 µM | 31.3 µM | 35.5 µM | 47.7 µM | 38.4 µM | 34.3 µM | 29.6 µM | 5.76 µM |  |  |  |  |  |  |  |  | 
O=C(O)/C(Cc1ccc([N+](=O)[O-])cc1)=N\O | > 100 µM | > 100 µM | > 100 µM | > 100 µM | > 100 µM | > 100 µM | > 100 µM | > 100 µM | > 100 µM |  |  |  |  |  |  |  |  |  | 
CC/C=C(\C(=C/CC)[N+](=O)[O-])[N+](=O)[O-] | > 100 µM | 35.1 µM | 32.1 µM | 27 µM | 30.5 µM | > 100 µM | > 100 µM | 31 µM | 32.2 µM | 64.9 µM |  |  |  |  |  |  |  |  | 
S=C(c1c[nH]c2ccccc12)N1CCN(Cc2ccccc2)CC1 |  | 29.1 µM | 50.9 µM | 26.9 µM | 29.4 µM | 34.1 µM | 35.9 µM | 30.9 µM | 29.2 µM | 47.5 µM |  |  |  |  |  |  |  |  | 
CC(=O)NC1=C[C@@H]([C@H]2COC(C)(C)O2)OC1=O | > 100 µM | > 100 µM | > 100 µM |  | > 100 µM | > 100 µM | > 100 µM | > 100 µM | > 100 µM | > 100 µM |  |  |  |  |  |  |  |  | 
O=[N+]([O-])c1ccc(C=NCC2CCCN3CCCCC23)cc1 (stereo unspecified) | > 100 µM | > 100 µM | > 100 µM | > 100 µM |  | > 100 µM |  | > 100 µM | 30.4 µM | > 100 µM |  |  |  |  |  |  |  |  | 
COc1ccc(CN=C(N)N)c2ccccc12 | > 100 µM | > 100 µM | > 100 µM | > 100 µM | > 100 µM | 86.9 µM | > 100 µM | > 100 µM | > 100 µM | > 100 µM |  |  |  |  |  |  |  |  | 
CCOC(=O)C(NC(=O)c1ccccc1)(N1CCOCC1)C(F)(F)F (stereo unspecified) | > 100 µM | > 100 µM | > 100 µM | > 100 µM | > 100 µM | > 100 µM | > 100 µM | > 100 µM | > 100 µM | > 100 µM |  |  |  |  |  |  |  |  | 
CCCCON1C[C@H](OC(C)=O)C(OC(C)=O)[C@H](OC(C)=O)C1 (stereo partly specified) | > 100 µM | > 100 µM | > 100 µM | > 100 µM | > 100 µM | > 100 µM | > 100 µM | > 100 µM | > 100 µM | > 100 µM |  |  |  |  |  |  |  |  | 
Nc1nn2c(nc(N)c3c(N)[nH]nc32)c1N=Nc1ccc(Br)cc1 | > 100 µM | > 100 µM | > 100 µM | > 53.6 µM | > 78 µM | 36.5 µM | > 100 µM | > 100 µM | 22.6 µM | > 25.9 µM |  |  |  |  |  |  |  |  | 
CC1C2(C)OC(=N)C(C#N)(C(c3cccc([N+](=O)[O-])c3)O2)C1(C#N)C#N (stereo unspecified) | > 100 µM | 40.4 µM | 49.6 µM | 38.7 µM |  | 61.7 µM | > 100 µM | 43.9 µM | 36 µM | > 100 µM |  |  |  |  |  |  |  |  | 
Clc1ccc(C2Nc3ccccc3C3=NCCN32)cc1 (stereo unspecified) | > 100 µM | 71.5 µM | 36 µM | 30.6 µM | > 100 µM | 41.3 µM |  | 58.8 µM | 36.2 µM | > 100 µM |  |  |  |  |  |  |  |  | 
C=C(OC1C(C)=C2C(C1OC(=O)CCCCCCC)C(C)(OC(C)=O)CC(OC(=O)CCC)C1(O)C2OC(=O)C1(C)O)/C(C)=C/C (stereo unspecified) | 6.16 µM | 0.000151 µM | 11.9 µM |  |  | 0.0642 µM | 0.226 µM | 1.53 µM |  | 0.177 µM | < 0.0001 µM | < 0.0001 µM | 0.000269 µM |  | < 0.0001 µM | < 0.0001 µM | < 0.0001 µM | < 0.0001 | 0.000402
N#Cc1c(-c2ccccc2)[nH]c(=O)n(C2OC(CO)C(O)C(O)C2O)c1=O (stereo unspecified) | > 100 µM | > 100 µM | > 100 µM | > 100 µM | > 100 µM | > 100 µM | > 100 µM | > 100 µM |  | > 100 µM |  |  |  |  |  |  | > 100 µM and 45.4 µM |  | 
CC(=O)OC[C@@H](OC(C)=O)[C@H](OC(C)=O)[C@@H]1OC(C)(C)O[C@@H]1C1SCCCS1 | > 100 µM | > 100 µM | > 100 µM | > 100 µM | > 100 µM | > 100 µM |  | > 100 µM | > 100 µM | > 100 µM |  |  |  |  |  |  |  |  | 
COc1ccc(OC)c(NS(=O)(=O)c2ccc3nc(C)n(NS(=O)(=O)c4cc(OC)ccc4OC)c(=O)c3c2)c1 |  | > 100 µM | > 100 µM | > 100 µM | > 100 µM | > 100 µM | > 100 µM | > 100 µM | > 100 µM | 62.7 µM |  |  |  |  |  |  |  |  | 
CCOC(=O)CC1(c2cccc3ccccc23)OC(=O)c2ccccc21 (stereo unspecified) | > 100 µM |  | > 100 µM |  | > 100 µM | > 100 µM | > 100 µM | 70.1 µM | > 100 µM | 82.4 µM |  |  |  |  |  |  |  |  | 
